Data taken from the CheMixHub viscosity set.

Assay: xn = mol fraction of the nth substance listed
Settings: 100 kPa

CCCCCCCCCCC + CCCCCCCO
viscosity [mPa·s]
Settings | x1 = 0.0999 | x1 = 0.1998 | x1 = 0.3007 | x1 = 0.399 | x1 = 0.5004 | x1 = 0.5988 | x1 = 0.7002 | x1 = 0.8004 | x1 = 0.8983
293.15 K | 5.317 | 4.102 | 3.124 | 2.518 | 2.05 | 1.798 | 1.547 | 1.383 | 1.239
298.15 K | 4.517 | 3.516 | 2.713 | 2.219 | 1.831 | 1.626 | 1.407 | 1.263 | 1.137
303.15 K | 3.86 | 3.037 | 2.378 | 1.975 | 1.654 | 1.47 | 1.284 | 1.158 | 1.048
308.15 K | 3.32 | 2.641 | 2.202 | 1.816 | 1.537 | 1.342 | 1.176 | 1.063 | 0.968
313.15 K | 2.876 | 2.315 | 1.956 | 1.633 | 1.369 | 1.229 | 1.078 | 0.981 | 0.896
318.15 K | 2.509 | 2.089 | 1.751 | 1.477 | 1.247 | 1.128 | 0.994 | 0.908 | 0.833
323.15 K | 2.251 | 1.86 | 1.575 | 1.34 | 1.14 | 1.04 | 0.918 | 0.843 | 0.777

CCOC(=O)CCC(=O)OCC + CCCCCCO
293.15 K
Settings | viscosity [mPa·s]
x1 = 0.4999 | 2.495
x1 = 0.7999 | 2.495
